Measured values published in publication PMC12163635, “Synthetic Retinoids for the Modulation of Genomic and Nongenomic Processes in Neurodegenerative Diseases” (ACS Omega, 2025).
Where two headings read alike, the source gives them in different places.

Tests used:
RARα = experiment: Fluorescence competition binding assay (displacement of DC271); design: species or system human; details: log-log plot of K D for RARα and RARγ
Procedure: (§1) Fluorescence competition assays were employed to determine the relative binding affinities of each synthetic retinoid toward the LBD of the RARs. The assay is based on the potential for competitive displacement of the inherently fluorescent retinoid DC271 from the LBP by a test nonfluorescent synthetic retinoid. Changes in the fluorescence were measured following the addition of a serial dilution of the test compound and the results were plotted to generate a binding curve. […] Assays were performed for both RARα and RARγ. […] Nonlinear least-squares regression analyses were performed to calculate binding affinities and reported as binding K D, the equilibrium dissociation constant between the RAR isoform and the test synthetic retinoid.
(§2) RARα/γ proteins were expressed in BL21(DE3) cells (NEB) transformed into pET50b (Novagen) and pOPINS3C vectors, respectively, carrying the gene construct and containing a His6-3C-NusA tag or His6-3C-SUMO tag used for solubility. Transformations were carried out under standard conditions using Quick Transformation Protocol (New England Biolabs). Successful transformants were grown overnight in 2xYT media (Melford) and frozen for storage at −80 °C in 50% glycerol. Expression cultures were inoculated from glycerol stocks into 25 mL of 2xYT media (Melford) with 50 μg/mL kanamycin or 100 μg/mL ampicillin (Sigma-Aldrich) and grown overnight with shaking (37 °C, 150 rpm). The overnight cultures were transferred into 1 L expression flasks (2xYT/ampicillin 100 μg/mL or 2xYT/kanamycin 50 μg/mL) and grown with shaking at 37 °C, 150 rpm. Induction was carried out at an OD600 of 0.6–0.8, with 1 mL of 1 M IPTG (1 mM in culture), before shaking overnight (20 h) at 18 °C. The resulting cultures were spun down into pellets using an Avanti Hi-Speed centrifuge (JLA 8.1000, 4000 rpm, 30 min, 4 °C), before the supernatant was removed and the bacterial pellet were frozen at −80 °C.
(§3) RARα/γ (pET50b or pOPINS3C, BL21(DE3) (NEB)) were resuspended from pellet with 20 mL Wash Buffer (20 mM Tris-HCl, 300 mM NaCl and 20 mM imidazole, pH 8) and the resulting suspension was sonicated on ice (40% power, 2 min, repeated twice with 1 min rest in-between) before centrifuging (Avanti Hi-Speed JA25.50, 20,000 rpm, 1 h, 4 °C). Supernatants were clarified using 0.45 μm syringe filters (Thermo Fisher Scientific). Affinity chromatography and size-exclusion (SEC) chromatography were carried out on AKTA Pure25 (Cytiva). Supernatants were loaded onto the HisTrap HP column (5 mL, Cytiva) and washed using 25 mL of wash Buffer. The column was washed with Wash Buffer until UV trace returned to baseline, before RARα/γ was eluted using a gradient of Elution Buffer (20 mM Tris-HCl, 300 mM NaCl, 500 mM imidazole pH 8). The resulting protein-containing fractions were analyzed by SDS-PAGE (200 V, 30 min) using SurePAGE Bis-Tris 12% precast gels (Genscript). Protein concentrations were estimated using absorbance at 280 nm on a DS-11 spectrophotometer (Denovix) with calculated molecular weights and extinction coefficients (Expasy). RAR proteins were cleaved overnight from 3C-NusA tag or 3C-SUMO-His tag using 1 Unit/100 μg protein of HRV3C protease (Thermo Fisher Scientific) at 4 °C. Solution after digestion was loaded onto a HiLoad 16/600 Superdex 75 prep-grade column (Cytiva) and cleaved RARα/γ was separated from the tag based on molecular weight and eluted from the column using SEC Buffer (20 mM Tris-HCl, 300 mM NaCl and 0.5 mM TCEP, pH 8) into 2 mL fractions. The resulting protein fractions were analyzed by SDS PAGE (200 V, 30 min) using SurePAGE Bis-Tris 12% precast gels (Genscript), before being concentrated to 5 mg/mL using centrifugal concentrators (Sartorius) and frozen at −80 °C in small aliquots for use in binding assays.

RARγ = molecular target: T1, RARγ (Homo sapiens, UniProt P13631); experiment: as above; details: for Kd / Binding KD (± SD) RARγ: 100 nM RAR and DC271 on plate; for Kd: read-out: Binding KD (± SD) RARγ; for ΔGEXP RARγ: experimental binding free energy from K D, ΔGexp=−RT ln K, 298.1 K
T1 construct: His6-3C-SUMO (cleaved yes); made in house; host or cells: E. coli BL21(DE3), pOPINS3C vector
T1 sequence (P13631 185-419 limits assumed): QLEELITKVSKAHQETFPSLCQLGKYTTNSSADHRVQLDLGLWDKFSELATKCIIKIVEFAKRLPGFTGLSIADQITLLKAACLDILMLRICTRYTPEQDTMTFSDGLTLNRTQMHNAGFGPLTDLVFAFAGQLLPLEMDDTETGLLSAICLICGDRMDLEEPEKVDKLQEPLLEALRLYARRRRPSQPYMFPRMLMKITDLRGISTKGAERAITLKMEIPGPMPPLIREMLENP
Procedure: as §1, §2, §3

SH-SY5Y cells = experiment: Neurite outgrowth; type: cell-based, human; details: for fold induction at 0.01 µM: Homo sapiens, SH-SY5Y, 120 h, read-out: fold increase in neurite outgrowth; for induction of neurite outgrowth compared with ATRA: 10 nM
Procedure: Following the characterization of retinoids for their genomic and nongenomic activities, the ability of retinoids to differentiate and induce neurite outgrowth in the neuroblastoma cell line, SH-SY5Y cells, was examined (Figure ). Neurite outgrowth can be induced in this cell line by ATRA at 10 μM.
SH-SY5Y cell line as used in ERK phosphorylation and neurite outgrowth assays described below. The cells were grown in DMEM containing 10% FCS at 37 °C with 5% CO2. The medium was changed three times a week and the cells were passaged at 70% confluence using 0.05% trypsin-EDTA.
SH-SY5Y cells were plated at 10,000 cells/well in 12-well plates containing 16 mm acid-treated/poly L-lysine-coated glass coverslips. After 24 h, retinoids were added to the medium and tested at two different concentrations, 10 μM and 10 nM, with a final DMSO concentration of 0.01 or 0.0001%, respectively. The plates were incubated for 5 days at 5% CO2/37 °C. All retinoid concentrations were tested in triplicate. Cells were fixed using 4% paraformaldehyde and stained for β-III tubulin (1:1000; Sigma). For each neurite outgrowth experiment, 3 coverslips (in 3 wells) were used. ImageJ software with the NeuronJ plugin was used to quantify neurite outgrowth on stained cells in each of the 10 randomly selected images of each coverslip taken using a Nikon Eclipse E400 fluorescence microscope. The average neurite length was calculated for each image by dividing total neurite length by the total number of neurites per image.
All data are presented as mean ± SEM of three independent experiments with biological triplicates. Statistical analyses were performed in Microsoft Office Excel 2019 or GraphPad Prism 7.0c version (Prism, GraphPad Software, San Diego, CA). Neurite outgrowth data were analyzed by one-way ANOVA with Newman-Keuls multiple comparison test as appropriate; P value <0.05 was considered statistically significant. *P < 0.05, **P < 0.01. Data for X-Gal and ERK1/2 phosphorylation were analyzed using sigmoidal dose–response analysis of log (agonist) versus response curve (stimulation).

[1] = 10 nM compound, 5 days, in comparison to nontreated cells

RARα, sequence (P10276 182-417): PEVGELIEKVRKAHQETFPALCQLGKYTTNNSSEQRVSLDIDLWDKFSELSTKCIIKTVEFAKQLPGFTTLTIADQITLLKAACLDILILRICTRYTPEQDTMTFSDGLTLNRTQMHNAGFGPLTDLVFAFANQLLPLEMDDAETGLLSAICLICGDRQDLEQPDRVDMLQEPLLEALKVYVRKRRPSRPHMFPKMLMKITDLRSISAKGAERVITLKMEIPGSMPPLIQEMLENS

| SMILES | binding preference RARα versus RARγ (from K D) (RARα) | Kd (RARγ) | ΔGEXP RARγ (RARγ) | fold induction at 0.01 µM (SH-SY5Y cells; [1]) | induction of neurite outgrowth compared with ATRA (SH-SY5Y cells; 5 days) | Binding KD (± SD) RARγ (RARγ) | fold induction at 0.01 µM (SH-SY5Y cells) |
| --- | --- | --- | --- | --- | --- | --- | --- |
| CC1(C)CCC(C)(C)c2cc(C#Cc3ccc(C(=O)O)c(F)c3)ccc21 [Compound 13, 2-Fluoro-4-[2-(5,5,8,8-tetramethyl-5,6,7,8-tetrahydronaphthalen-2-yl)ethynyl]benzoic Acid] | close to the plotted line representing equal binding affinity for RARα and RARγ | 18.6 nM | -10.6 kcal/mol | 1.9 |  |  |  |
| CC1(C)CCC(C)(C)c2cc(C#Cc3ccc(C(=O)O)cc3F)ccc21 [Compound 14, 3-Fluoro-4-[2-(5,5,8,8-tetramethyl-5,6,7,8-tetrahydronaphthalen-2-yl)ethynyl]benzoic Acid] | bind RARγ stronger than RARα | 16 nM | -10.7 kcal/mol | 2.1 |  |  |  |
| CC1(C)CCC(C)(C)c2cc(C#Cc3cc(F)c(C(=O)O)c(F)c3)ccc21 [Compound 15, 2,6-Difluoro-4-[2-(5,5,8,8-tetramethyl-5,6,7,8-tetrahydronaphthalen-2-yl)ethynyl]benzoic Acid] | strongly binds both RARα and RARγ | 22.7 nM | -10.4 kcal/mol | 1.7 |  |  |  |
| CC1(C)CCC(C)(C)c2cc(C#Cc3ccc(C(=O)O)cc3Cl)ccc21 [Compound 16, 3-Chloro-4-[2-(5,5,8,8-tetramethyl-5,6,7,8-tetrahydronaphthalen-2-yl)ethynyl]benzoic Acid] | bind RARγ stronger than RARα | 24.2 nM | -10.4 kcal/mol | 1.6 |  |  |  |
| Cc1cc2c(cc1C#Cc1ccc(C(=O)O)c(F)c1)C(C)(C)CCC2(C)C [Compound 17, 2-Fluoro-4-[2-(3,5,5,8,8-pentamethyl-5,6,7,8-tetrahydronaphthalen-2-yl)ethynyl]benzoic Acid] | close to the plotted line representing equal binding affinity for RARα and RARγ | 20.6 nM | -10.5 kcal/mol |  | induced neurite outgrowth but not significantly compared to ATRA |  |  |
| Cc1cc2c(cc1C#Cc1ccc(C(=O)O)cc1F)C(C)(C)CCC2(C)C [Compound 18, 3-Fluoro-4-[2-(3,5,5,8,8-pentamethyl-5,6,7,8-tetrahydronaphthalen-2-yl)ethynyl]benzoic Acid] | close to the plotted line representing equal binding affinity for RARα and RARγ | 18.6 nM | -10.6 kcal/mol |  | induced neurite outgrowth but not significantly compared to ATRA |  |  |
| Cc1cc2c(cc1C#Cc1cc(F)c(C(=O)O)c(F)c1)C(C)(C)CCC2(C)C [Compound 19, 2,6-Difluoro-4-[2-(3,5,5,8,8-pentamethyl-5,6,7,8-tetrahydronaphthalen-2-yl)ethynyl]benzoic Acid] | bind RARα preferentially over RARγ | 33.7 nM | -10.2 kcal/mol | 1.6 | significantly induced neurite outgrowth compared to ATRA |  |  |
| COc1cc2c(cc1C#Cc1cc(F)c(C(=O)O)c(F)c1)C(C)(C)CCC2(C)C [Compound 22, 2,6-Difluoro-4-[2-(3-methoxy-5,5,8,8-tetramethyl-5,6,7,8-tetrahydronaphthalen-2-yl)ethynyl]benzoic Acid] | bind RARα preferentially over RARγ | 355 nM | -8.81 kcal/mol |  | induced neurite outgrowth but not significantly compared to ATRA |  |  |
| CC1(C)CCC(C)(C)c2cc(C#Cc3cnc(C(=O)O)cn3)ccc21 [Compound 25, 5-[2-(5,5,8,8-Tetramethyl-5,6,7,8-tetrahydronaphthalen-2-yl)ethynyl]pyrazine-2-carboxylic Acid] |  |  | Non-competitive Binding |  | induced neurite outgrowth but not significantly compared to ATRA | noncompetitive binding |  |
| COc1cc2c(cc1C#Cc1ncc(C(=O)O)cn1)C(C)(C)CCC2(C)C [Compound 29, 2-[2-(3-Methoxy-5,5,8,8-tetramethyl-5,6,7,8-tetrahydronaphthalen-2-yl)ethynyl]pyrimidine-5-carboxylic Acid] |  |  | Non-competitive Binding |  | induced neurite outgrowth but not significantly compared to ATRA | noncompetitive binding |  |
| Cc1sc(-c2ccc(C(=O)O)cn2)nc1-c1cnc2c(n1)C(C)(C)CCC2(C)C [Compound 41, 6-[5-Methyl-4-(5,5,8,8-tetramethyl-5,6,7,8-tetrahydroquinoxalin-2-yl)-1,3-thiazol-2-yl]pyridine-3-carboxylic Acid] |  |  | Non-competitive Binding | 1.7 |  | noncompetitive binding |  |
| Cc1sc(-c2ccc(C(=O)O)cc2)nc1-c1ccc2c(c1)C(C)(C)CCC2(C)C [GZ25, reference compound] |  | 335 nM | -8.84 kcal/mol |  | induced significant neurite outgrowth compared to ATRA |  | 1.8 |
